Source: PMC7079008, “Compactness of Protein Folds Alters Disulfide‐Bond Reducibility by Three Orders of Magnitude: A Comprehensive Kinetic Case Study on the Reduction of Differently Sized Tryptophan Cage Model Proteins” (Chembiochem, 2019)
Where a SMILES comes first, the peptide text is derived from it. Bridges are numbered along the chain shown (N, C = ends).

Experiment: Complete redox cycle after DTT reduction: reoxidation by dissolved O2 and precipitation, 1H NMR
Type: physicochemical
Details: twofold excess of DTT, pH 7, 15 °C, sealed NMR tube
Protocol: Incomplete conversion, despite the presence of a large excess of the RA, provided evidence for the reoxidation of the reduced SS bond of the studied model systems. To study this process in detail, the in situ reoxidation of the DTT‐reduced protein samples at […] in sealed NMR tubes (pH 7, 15 °C, twofold excess of DTT) was monitored for several weeks.
Figure 8 The 50‐membered structure ensembles of A) E11_SS⇄E11_2SH and B) E5_SS⇄E5_2SH. The fold of E11_2SH is more compact than that of E5_2SH, which has more “open” conformers, in which the Cys residues are far from each other. This allows intermolecular, rather than intramolecular, reoxidation. The dissolved oxidized and reduced protein concentrations of C) E11_SS⇄E11_2 SH and D) E5_SS⇄E5_2SH (oxidized: blue; reduced: green) as a function of time. […] E) Estimated parameters of the complete redox cycles. […] Figure S11 contains all data for parameter estimation of E11_SS, E5_SS, and E2_SS. […]
Reoxidation can take place both intra‐ and intermolecularly. […] According to our semiquantitative analysis based on the recorded ^1H NMR spectra, the integral changes of the Trp Hϵ1 resonances both in the oxidized and reduced forms of the protein during reduction with DTT show a decrease in concentration over the observed period of redox time for both E2_SS and E5_SS. […]

Row | Structure (SMILES) | decrease of the initial dissolved protein concentration at the end of a complete redox cycle
1 | CC[C@H](C)[C@@H]1NC(=O)[C@H](Cc2ccc(O)cc2)NC(=O)[C@H](CC(C)C)NC(=O)[C@H](CCCNC(=N)N)NC(=O)[C@H](C(C)C)NC(=O)[C@@H](NC(=O)[C@H](CCC(=O)O)NC(=O)[C@H](CCC(=O)O)NC(=O)[C@H](CCC(=O)O)NC(=O)[C@H](CCSC)NC(=O)[C@H](CCC(N)=O)NC(=O)[C@H](CCCCN)NC(=O)[C@H](CO)NC(=O)[C@H](CC(C)C)NC(=O)[C@@H](N)CC(=O)O)CSSC[C@@H](C(=O)O)NC(=O)[C@@H]2CCCN2C(=O)[C@@H]2CCCN2C(=O)[C@@H]2CCCN2C(=O)[C@H](CCCNC(=N)N)NC(=O)CNC(=O)[C@H](CO)NC(=O)[C@H](CO)NC(=O)[C@@H]2CCCN2C(=O)CNC(=O)CNC(=O)[C@H](CC(=O)O)NC(=O)[C@H](CCCCN)NC(=O)[C@H](CC(C)C)NC(=O)[C@H](Cc2c[nH]c3ccccc23)NC(=O)[C@H](CCC(N)=O)NC1=O [E11_SS] (H-DLSKQMEEECVRLYIQWLKDGGPSSGRPPPC-OH; disulfide 10-31) | remained the same
2 | CC[C@H](C)[C@@H]1NC(=O)[C@H](Cc2ccc(O)cc2)NC(=O)[C@H](CC(C)C)NC(=O)[C@H](CCCNC(=N)N)NC(=O)[C@H](C(C)C)NC(=O)[C@@H](NC(=O)[C@H](CCC(=O)O)NC(=O)[C@H](CCC(=O)O)NC(=O)[C@@H](N)CCC(=O)O)CSSC[C@@H](C(=O)O)NC(=O)[C@@H]2CCCN2C(=O)[C@@H]2CCCN2C(=O)[C@@H]2CCCN2C(=O)[C@H](CCCNC(=N)N)NC(=O)CNC(=O)[C@H](CO)NC(=O)[C@H](CO)NC(=O)[C@@H]2CCCN2C(=O)CNC(=O)CNC(=O)[C@H](CC(=O)O)NC(=O)[C@H](CCCCN)NC(=O)[C@H](CC(C)C)NC(=O)[C@H](Cc2c[nH]c3ccccc23)NC(=O)[C@H](CCC(N)=O)NC1=O [E5_SS] (H-EEECVRLYIQWLKDGGPSSGRPPPC-OH; disulfide 4-25) | 68%
